Measured values taken from doi:10.1101/2024.09.05.611129v1 (biorxiv, 2024).

Target: MtKatG (Mycobacterium tuberculosis, UniProt P9WIE5)
Sequence (P9WIE5 whole entry): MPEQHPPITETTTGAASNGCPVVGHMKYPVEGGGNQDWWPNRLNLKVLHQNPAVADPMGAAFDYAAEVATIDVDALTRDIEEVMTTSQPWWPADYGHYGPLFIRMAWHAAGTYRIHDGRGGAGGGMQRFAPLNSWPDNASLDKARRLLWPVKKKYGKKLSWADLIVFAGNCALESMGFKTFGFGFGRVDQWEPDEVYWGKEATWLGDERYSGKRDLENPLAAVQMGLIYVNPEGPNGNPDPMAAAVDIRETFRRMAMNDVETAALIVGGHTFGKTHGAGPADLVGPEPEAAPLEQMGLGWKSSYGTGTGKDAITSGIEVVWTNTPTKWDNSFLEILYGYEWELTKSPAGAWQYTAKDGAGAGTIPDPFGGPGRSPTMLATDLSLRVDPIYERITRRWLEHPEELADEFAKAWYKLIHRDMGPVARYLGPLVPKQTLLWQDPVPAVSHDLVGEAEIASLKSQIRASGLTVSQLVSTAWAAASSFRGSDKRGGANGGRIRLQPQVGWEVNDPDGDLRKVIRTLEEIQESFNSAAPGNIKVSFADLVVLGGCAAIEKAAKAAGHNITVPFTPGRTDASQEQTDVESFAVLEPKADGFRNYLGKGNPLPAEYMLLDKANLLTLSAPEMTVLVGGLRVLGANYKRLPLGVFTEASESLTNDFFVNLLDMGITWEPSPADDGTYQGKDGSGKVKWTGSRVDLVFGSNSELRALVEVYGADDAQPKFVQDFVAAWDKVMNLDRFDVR

## CC(C)(C)OO [t-BuOOH]
  Km: 19 ± 6 mM
